Experimental data: patent US20200038419A1, “METHODS OF TREATING MULTIPLE SYSTEM ATROPHY USING AMINOSTEROL COMPOSITIONS” (Enterin, Inc., priority 2018, published 2020)

Key:
[1] = system: patients with PD and constipation; assay: Phase 2 trial Stage 2 (daily dosing): bowel function, stool related indices; assay type: in vivo, human
Protocol: (§1) In Stage 2, 34 patients were evaluated.
The primary efficacy outcome variable was whether or not a subject was a “success” or “failure”. This is an endpoint based on subject diary entries for the “fixed dose” period prior to the endpoint assessment defined as average complete stool frequency increase by 1 or more over baseline, or 3 or more complete spontaneous stools/week. The subject was deemed a “success” if s/he met one or more of the criteria listed above, otherwise the subject was deemed a “failure”. The primary analysis was based on all subjects with a baseline assessment and an assessment at the end of the “fixed-dose” period and was a comparison of the proportion of successes with 0.10 (the null hypothesis corresponding to no treatment effect).

[2] = system: patients with PD; assay: Circadian rhythm of wrist skin temperature; assay type: in vivo, human; conditions: for circadian rhythm of wrist skin temperature (IS, IV, RA, CFI): fixed dose vs baseline, 12 evaluable patients
Protocol: (6) I-Button Temperature Assessment. The I-Button is a small, rugged self-sufficient system that measures temperature and records the results in a protected memory section. The Thermochron I-Button DS1921H (Maxim Integrated, Dallas, Tex.) was used for skin temperature measurement. I-Buttons were programmed to sample every 10 mins., and attached to a double-sided cotton sport wrist band using Velcro, with the sensor face of the I-Button placed over the inside of the wrist, on the radial artery of the dominant hand. Subjects removed and replaced the data logger when necessary (i.e., to have a bath or shower). The value of skin temperature assessment in sleep research is that the endogenous skin warming resulting from increased skin blood flow is functionally linked to sleep propensity. From the collected data, the mesor, amplitude, acrophase (time of peak temperature), Rayleight test (an index of interdaily stability), mean waveforms are calculated.);
Circadian rhythm of skin temperature was evaluable in 12 patients (i.e., those who had recordings that extended from baseline through washout). Circadian system functionality was evaluated by continuously monitoring wrist skin temperature using a temperature sensor (Thermochron iButton DS1921H; Maxim, Dallas, Tex.) (Sarabia et al. 2008). A nonparametric analysis was performed for each participant to characterize DST as previously described (Sarabia et al. 2008; Ortiz-Tudela et al. 2010).
Briefly, this analysis includes the following parameters: (i) the inter-daily stability (the constancy of 24-hour rhythmic pattern over days, IS); (ii) intra-daily variability (rhythm fragmentation, IV); (iii) average of 10-minute intervals for the 10 hours with the minimum temperature (L10); (iv) average of 10-minute intervals for the 5 hours with the maximum temperature (M5) and the relative amplitude (RA), which was determined by the difference between M5 and L10, divided by the sum of both. Finally, the Circadian Function Index (CFI) was calculated by integrating IS, IV, and RA. […]

[3] = system: patients with PD; assay: CNS / neurological symptoms in Stage 2 (UPDRS, MMSE, PDHQ, BDI-II); assay type: in vivo, human; conditions: during treatment; patients with hallucinations (5) or delusions (1) at baseline
Source text: Exploratory end-points, in addition to constipation, included for example, (i) depression assessed using the Beck Depression Inventory (BDI-II) (Steer et al. 2000) and Unified Parkinson's Disease Rating Scale (UPDRS); (ii) cognition assessed using the Mini Mental State Examination (MMSE) (Palsteia et al. 2018), Unified Parkinson's Disease Rating Scale (UPDRS), and Trail Making Test (TMT); (iii) sleep and REM-behavior disorder (RBD) using a daily sleep diary, I-Button Temperature Assessment, a REM sleep behavior disorder (RBD) questionnaire (RBDQ) (Stiasny-Kolster et al. 2007), and the UPDRS; (iv) hallucinations assessed using the PD hallucinations questionnaire (PDHQ) (Papapetropoulos et al. 2008), the UPDRS, and direct questioning; (v) fatigue using the Parkinson's Disease Fatigue Scale (PFS-16) and the UPDRS; (vi) motor functions using the UPDRS; and (vii) non-motor functions using the UPDRS.
Assessments were made at baseline and at the end of the fixed dose and washout periods. Circadian system status was evaluated by continuously monitoring wrist skin temperature (Thermochron iButton DS1921H; Maxim, Dallas) following published procedures (Sarabia et al. 2008). […]
CNS symptoms were evaluated at baseline and at the end of the fixed dose period and the wash-out period (Table 12). […]

[4] = system: patients with PD and constipation; assay: Adverse events, Stage 2; assay type: in vivo, human; conditions: Stage 2, number of patients
Protocol: as §1

[5] = system: patients with PD and constipation; assay: Adverse events, Stage 1; assay type: in vivo, human; conditions: Stage 1, 10 dosed
Source text: Tolerability limits included diarrhea or vomiting.

[6] = Pharmacokinetics of orally administered squalamine (ENT-01) in Stage 1; assay type: in vivo; conditions: human, this study
Protocol: PK data were collected on the 10 patients enrolled in Stage 1 and 10 patients enrolled in Stage 2 to determine the extent of systemic absorption. In Stage 1, PK data were obtained at each visit, pre-medication, at 1, 2, 4, 8 and 24 hours (Table 10). In Stage 2, PK was measured on days 1 and 6 of the randomization period pre-medication, at 1, 2, 4 and 8 hours (Table 11).
The mean Cmax, Tmax and T1/2 and AUC of the squalamine ion following squalamine (ENT-01) oral dosing for Stage 1 patients. The PK analyses are only approximate, as the lower limit of the validated concentration range was 10 ng/ml; most of the measured concentrations fell below that value. The mean Cmax, Tmax and T1/2 and AUC of the squalamine ion following squalamine (ENT-01) oral dosing for Stage 2 patients. The PK analyses are only approximate, as the lower limit of the validated concentration range was 0.5 ng/ml.

[7] = system: IPANs (intrinsic primary afferent neuron); conditions: isolated bowel segment, PD mouse model, luminal perfusion; cited from earlier work
[8] = system: mouse models of PD; conditions: oral; mice with constipation due to overexpression of human αS (West et al, manuscript in preparation); cited from earlier work
[9] = following systemic administration, in mice; cited from earlier work

CC(C)[C@@H](CC[C@@H](C)[C@H]1CC[C@H]2[C@@H]3[C@H](O)C[C@H]4C[C@@H](NCCCNCCCCN)CC[C@]4(C)[C@H]3CC[C@]12C)OS(=O)(=O)O (single isomer, unassigned) [squalamine (ENT-01), squalamine]
response rate (CSBM within 24 hours of dosing on at least 2 of 3 days) ([1]; Stage 2, daily dosing, at 250 mg (range 75-250 mg)): 85%
SBM, weekly average ([1]; Stage 2, fixed dose, mean (SD), n = 34, baseline 2.6 (1.45)): 4.5 (2.21) /week
circadian rhythm of wrist skin temperature (IS, IV, RA, CFI) [2]: significant positive impact
circadian rhythm of wrist skin temperature (IS, IV, RA, CFI) ([2]; listed as ENT-01): improved all markers of healthy circadian function
circadian rhythm parameters (IS, CFI) ([2]; wash-out period vs baseline): improvement persisted for several of these circadian parameters
patients in whom hallucinations and delusions improved or disappeared [3]: 5 of 6
patients who withdrew during dosing because of diarrhea [4]: 2
Abdominal pain, Mild [5]: 2 (20) n
Abdominal pain, Moderate [5]: 3 (30) n
Blood in urine, Moderate [5]: 0 n
Diarrhea, Mild [5]: 1 (10) n
Diarrhea, Moderate [5]: 3 (30) n
Diarrhea, Severe [5]: 0 n
Difficulty falling asleep, Mild [5]: 0 n
Difficulty falling asleep, Moderate [5]: 0 n
Dizziness, Mild [5]: 0 n
Dizziness, Moderate [5]: 0 n
Eye infection, Mild [5]: 0 n
Eye infection, Moderate [5]: 0 n
Flatulence, Mild [5]: 2 (20) n
Flatulence, Moderate [5]: 0 n
Headache, Mild [5]: 1 (10) n
Headache, Moderate [5]: 0 n
Increased urinary frequency, Mild [5]: 0 n
Increased urinary frequency, Moderate [5]: 0 n
Loss of appetite, Moderate [5]: 0 n
Lower GI bleed, Severe [5]: 0 n
Nausea, Mild [5]: 4 (40) n
Nausea, Moderate [5]: 0 n
Skin lesions-rash, Mild [5]: 0 n
Skin lesions-rash, Moderate [5]: 0 n
Urinary retention, Mild [5]: 0 n
Urinary retention, Moderate [5]: 0 n
Urinary tract infection, Mild [5]: 0 n
Urinary tract infection, Moderate [5]: 0 n
Vomiting, Mild [5]: 1 (10) n
Vomiting, Moderate [5]: 0 n
Worsening acid reflux, Mild [5]: 0 n
Worsening acid reflux, Moderate [5]: 0 n
Worsening hemorrhoid, Mild [5]: 0 n
Worsening hemorrhoid, Moderate [5]: 0 n
Blood in urine, Mild ([5]; unrelated to ENT-01): 1 (10) n
Loss of appetite, Mild ([5]; unrelated to ENT-01): 1 (10) n

CC(C)[C@@H](CC[C@@H](C)[C@H]1CC[C@H]2[C@@H]3[C@H](O)C[C@H]4C[C@@H](NCCCNCCCCN)CC[C@]4(C)[C@H]3CC[C@]12C)OS(=O)(=O)O [squalamine]
systemic absorption following oral administration [6]: not significantly absorbed into the systemic circulation
effect on IPANs [7]: excitation of IPANs
gastro-intestinal motility [8]: stimulates gastro-intestinal motility
clearance and excretion [9]: cleared by the liver and excreted as the intact molecule
